Test results as given in patent publication US9944618B2, “Inhibiting neurotransmitter reuptake” (Mayo Foundation for Medical Education and Research, priority 2013, dated 2018).
Read-outs that look alike come from different tables or passages of the source.

Tests used:
[1] = biological target: human norepinephrine transporter (Homo sapiens (Human), UniProt P23975); experiment: Human NET (norepinephrine transporter) uptake assay; type: cell-based; conditions: read-out: hNET Ki
In short: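 HEK293F cells transfected with human NET were thawed, plated at about 60,000 cells/well and held at 37 °C for at least 3 h. Compounds came from 10 mM DMSO stocks, with nomifensine as control, in 1×HBSS/0.02 M HEPES. Uptake was followed with a neurotransmitter transporter dye, dosed as % of vendor reconstitution, in triplicate.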

[2] = biological target: human dopamine transporter (Homo sapiens (Human), UniProt Q01959); experiment: Human DAT (dopamine transporter) uptake assay; type: cell-based; conditions: read-out: hDAT Ki
In short: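 Uptake inhibition was measured in HEK293F cells transfected with human DAT, plated at ~60,000 cells/well and settled ≥3 h at 37 °C. Compounds came from 10 mM DMSO stocks. Read-out was uptake of a fluorescent neurotransmitter transporter dye in HBSS with 0.02 M HEPES, with dye level given as % of vendor reconstitution; n=3.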

[3] = biological target: human serotonin transporter (Homo sapiens (Human), UniProt P31645); experiment: Human SERT (serotonin transporter) uptake assay; type: cell-based; conditions: read-out: hSERT Ki
Method: This protocol was designed to measure inhibition of uptake by the human serotonin transporter. […] The Assay Buffer (AB) was […] and 0.02 M HEPES.
The HEK293F cells were transfected with the human serotonin transporter and frozen in 1 mL aliquots at about 1E+07 cells/mL. On the day of the experiment, the cells were removed from −80° C. or liquid nitrogen and thawed in a room temperature water bath. The cells were dilute to about 1-2E+06 with Freestyle medium. A 1 mL sample (1:2 dilution) was prepared, and the cells were counted. The cells were spun at 1100 rpm for 5 minutes, and the medium was aspirated off. The cells were resuspend in medium at 1.5E+06 cells/mL for about 60,000 cells per well. 40 μL of cells were dispensed per well in the Biocoat plates. The plates were spun at 1100 rpm for 1 minute to improve homogeneity of the cell layer and were incubated at 37° C. for a minimum of 3 hours.
12 μL of test compound (10 mM) in DMSO was added to the wells, and nomifensine was used as a control. Fluoxetine (final assay concentration of 10 μM) was used for background signal. The neurotransmitter transporter dye was prepared in AB prior to use.
Due to the proprietary nature of the dye formulation, all dye concentrations were expressed as a percentage of the vendor-recommended dye reconstitution. Thus, the above calculations were valid when both [dye] and Km were expressed in the same units (%). Compounds were tested in triplicate (n=3).

hERG = hERG (Homo sapiens (Human), UniProt Q12809); experiment: Human ERG (hERG) assay, hERG currents in hERG-expressing CHO cells; type: cell-based
Description: The voltage-dependent potassium channel encoded by the human ether-a-go-go-related gene (hERG) is believed to play a key role in repolarisation of the ventricular cardiac action potential. Changes in its activity, caused either by inherited mutations of the gene sequence or pharmacological modification, can lead to prolongation of action potential duration. This can lead to prolongation of the QT interval recorded in man on an electrocardiogram and to a potentially fatal cardiac arrhythmia known as Torsades de Pointes.
hERG currents were recorded from hERG-expressing CHO cells. The biophysical and pharmacological characterization of the hERG currents in these cells was performed.

[4] = pKa of basic centres (Table 1); type: physicochemical
CYP3A4 = CYP3A4 (Homo sapiens (Human), UniProt P08684); experiment: Cytochrome P450 inhibition assay, recombinant CYP3A4 (BFC substrate); type: in vitro ADME; conditions: recombinant enzyme
Method: Recombinant enzymes, 3A4 and 2D6, generated using the ABL yeast expression system were used. […] The assay mixture also included K2HPO4 (pH 7.4; conc. 0.1 M) and NADPH (conc. 1 mM). The incubation time was 30 minutes, and the reference inhibitor was A-naphthoflavone. For CYP2D6, the enzyme amount was 2 pmol per well, and the substrate (7-methoxy-4-(aminomethyl)-coumarin; MAMC) was used at 20 μM. The assay mixture also included K2HPO4 (pH 7.4; conc. 0.1 M) and NADPH (conc. 0.06 mM). The incubation time was 35 minutes, and the reference inhibitor was quinidine.
Briefly, 0.6 μL of serially diluted compound was added to 75 μL water. 10 μL of diluted compound in water was then added to each assay plate. 20 μL of a K2HPO4, enzyme, and substrate mixture was added. After 10 minutes of room temperature pre-incubation, 10 μL of NADPH was added, and the plates were placed at 37° C. for 30 or 35 minutes depending on the enzyme being tested. After the incubation was complete, 20 μL of 0.1% Tris/ACN was added to the plate. The plate was read on a FluorStar fluorescence plate reader.

CYP2D6 = CYP2D6 (Homo sapiens (Human), UniProt P10635); experiment: Cytochrome P450 inhibition assay, recombinant CYP2D6 (MAMC substrate); type: in vitro ADME; conditions: recombinant enzyme
[5] = first base, e.g., an aliphatic primary, secondary, or tertiary amine, read-out: pKa (Base 1)
[6] = second base in the same molecule (if present), read-out: pKa (Base 2)
[7] = selected reference compounds, HEK293F cells, Cheng-Prusoff
[8] = selected reference compounds, CHO cells

Sequence of CYP2D6 (P10635 whole entry): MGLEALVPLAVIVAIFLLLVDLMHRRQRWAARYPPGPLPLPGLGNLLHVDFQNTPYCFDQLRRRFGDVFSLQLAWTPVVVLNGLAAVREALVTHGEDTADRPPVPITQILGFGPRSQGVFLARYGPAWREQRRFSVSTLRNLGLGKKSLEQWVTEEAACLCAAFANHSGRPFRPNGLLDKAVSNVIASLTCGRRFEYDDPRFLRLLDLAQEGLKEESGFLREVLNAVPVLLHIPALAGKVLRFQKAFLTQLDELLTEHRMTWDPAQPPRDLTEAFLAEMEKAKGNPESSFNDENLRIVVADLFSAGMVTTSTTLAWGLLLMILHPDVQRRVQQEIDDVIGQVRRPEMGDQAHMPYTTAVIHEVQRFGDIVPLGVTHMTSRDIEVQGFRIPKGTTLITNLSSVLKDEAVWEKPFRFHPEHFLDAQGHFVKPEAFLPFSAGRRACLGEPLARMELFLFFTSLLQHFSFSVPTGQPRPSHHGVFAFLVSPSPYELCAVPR
Sequence of human norepinephrine transporter (P23975 whole entry): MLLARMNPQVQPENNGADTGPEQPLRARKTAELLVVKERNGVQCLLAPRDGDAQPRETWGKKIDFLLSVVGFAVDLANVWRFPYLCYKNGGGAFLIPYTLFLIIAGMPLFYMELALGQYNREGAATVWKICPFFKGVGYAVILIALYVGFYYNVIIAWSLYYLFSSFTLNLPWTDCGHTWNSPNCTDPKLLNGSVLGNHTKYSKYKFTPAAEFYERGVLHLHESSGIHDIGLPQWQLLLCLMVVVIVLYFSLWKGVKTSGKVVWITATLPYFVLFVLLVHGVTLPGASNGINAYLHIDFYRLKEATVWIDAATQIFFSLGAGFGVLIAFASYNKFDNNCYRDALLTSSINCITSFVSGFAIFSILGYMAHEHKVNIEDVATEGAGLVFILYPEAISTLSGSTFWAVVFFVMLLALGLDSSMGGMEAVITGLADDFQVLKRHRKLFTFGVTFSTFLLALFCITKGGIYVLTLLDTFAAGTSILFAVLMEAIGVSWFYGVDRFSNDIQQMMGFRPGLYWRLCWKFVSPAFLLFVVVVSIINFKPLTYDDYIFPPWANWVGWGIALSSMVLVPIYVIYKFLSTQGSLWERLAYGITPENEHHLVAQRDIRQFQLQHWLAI
Sequence of hERG (Q12809 whole entry): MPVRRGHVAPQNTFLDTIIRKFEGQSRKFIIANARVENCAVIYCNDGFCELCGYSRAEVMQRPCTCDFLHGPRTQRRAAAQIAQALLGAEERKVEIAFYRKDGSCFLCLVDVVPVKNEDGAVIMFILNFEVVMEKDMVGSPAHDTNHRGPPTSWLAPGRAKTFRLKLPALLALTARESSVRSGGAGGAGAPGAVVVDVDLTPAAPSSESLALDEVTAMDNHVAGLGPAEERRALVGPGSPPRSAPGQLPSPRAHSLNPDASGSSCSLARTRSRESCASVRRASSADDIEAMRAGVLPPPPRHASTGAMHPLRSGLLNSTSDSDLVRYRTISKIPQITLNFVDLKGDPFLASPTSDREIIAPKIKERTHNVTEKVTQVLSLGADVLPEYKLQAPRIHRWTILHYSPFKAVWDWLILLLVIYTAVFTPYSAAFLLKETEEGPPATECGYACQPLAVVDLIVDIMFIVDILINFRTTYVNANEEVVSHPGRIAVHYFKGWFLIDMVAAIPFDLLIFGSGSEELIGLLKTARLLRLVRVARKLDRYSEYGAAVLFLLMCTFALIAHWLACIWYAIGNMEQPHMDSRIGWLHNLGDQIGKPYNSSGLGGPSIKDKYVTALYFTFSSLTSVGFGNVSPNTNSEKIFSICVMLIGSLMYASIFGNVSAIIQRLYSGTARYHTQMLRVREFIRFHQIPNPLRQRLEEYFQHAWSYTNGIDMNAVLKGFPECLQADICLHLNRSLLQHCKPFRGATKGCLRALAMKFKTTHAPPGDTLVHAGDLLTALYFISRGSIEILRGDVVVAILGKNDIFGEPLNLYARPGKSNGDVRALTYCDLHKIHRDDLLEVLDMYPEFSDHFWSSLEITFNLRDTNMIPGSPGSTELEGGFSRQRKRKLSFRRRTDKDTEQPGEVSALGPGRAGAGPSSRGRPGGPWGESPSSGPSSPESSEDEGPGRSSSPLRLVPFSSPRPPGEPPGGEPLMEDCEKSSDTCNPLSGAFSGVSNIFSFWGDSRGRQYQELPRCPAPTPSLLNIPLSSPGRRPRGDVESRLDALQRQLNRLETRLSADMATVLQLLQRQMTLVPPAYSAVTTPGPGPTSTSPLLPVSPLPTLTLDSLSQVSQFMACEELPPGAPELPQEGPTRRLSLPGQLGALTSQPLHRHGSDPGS
Sequence of CYP3A4 (P08684 whole entry): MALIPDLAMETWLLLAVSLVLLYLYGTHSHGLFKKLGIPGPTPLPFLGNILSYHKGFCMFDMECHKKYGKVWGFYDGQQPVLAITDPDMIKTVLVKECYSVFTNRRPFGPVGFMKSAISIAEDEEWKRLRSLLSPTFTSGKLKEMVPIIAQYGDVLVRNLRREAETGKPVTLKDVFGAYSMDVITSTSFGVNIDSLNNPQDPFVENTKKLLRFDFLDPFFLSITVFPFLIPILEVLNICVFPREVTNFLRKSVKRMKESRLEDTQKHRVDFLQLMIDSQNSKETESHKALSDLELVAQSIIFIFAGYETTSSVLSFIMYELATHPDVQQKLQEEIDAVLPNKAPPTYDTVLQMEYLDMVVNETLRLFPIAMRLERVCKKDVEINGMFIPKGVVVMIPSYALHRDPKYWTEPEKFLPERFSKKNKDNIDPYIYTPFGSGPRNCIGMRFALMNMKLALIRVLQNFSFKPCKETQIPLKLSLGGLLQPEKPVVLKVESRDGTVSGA
Sequence of human dopamine transporter (Q01959 whole entry): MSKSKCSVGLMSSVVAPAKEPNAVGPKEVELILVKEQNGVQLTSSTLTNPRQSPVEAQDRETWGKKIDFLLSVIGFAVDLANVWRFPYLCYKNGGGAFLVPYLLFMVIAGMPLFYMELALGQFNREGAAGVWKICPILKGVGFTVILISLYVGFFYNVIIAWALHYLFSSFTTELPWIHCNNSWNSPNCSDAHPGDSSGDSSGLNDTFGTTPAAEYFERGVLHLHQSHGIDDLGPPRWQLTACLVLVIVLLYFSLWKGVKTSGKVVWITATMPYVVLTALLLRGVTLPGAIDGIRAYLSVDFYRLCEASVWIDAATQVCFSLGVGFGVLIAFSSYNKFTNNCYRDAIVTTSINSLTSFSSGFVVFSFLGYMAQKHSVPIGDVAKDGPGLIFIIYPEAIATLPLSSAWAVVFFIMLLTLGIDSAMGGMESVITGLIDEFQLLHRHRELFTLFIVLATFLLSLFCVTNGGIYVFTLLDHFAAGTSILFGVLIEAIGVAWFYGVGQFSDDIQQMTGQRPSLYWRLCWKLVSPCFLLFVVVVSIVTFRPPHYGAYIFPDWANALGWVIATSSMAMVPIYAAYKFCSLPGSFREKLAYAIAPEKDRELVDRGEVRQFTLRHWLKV
Sequence of human serotonin transporter (P31645 whole entry): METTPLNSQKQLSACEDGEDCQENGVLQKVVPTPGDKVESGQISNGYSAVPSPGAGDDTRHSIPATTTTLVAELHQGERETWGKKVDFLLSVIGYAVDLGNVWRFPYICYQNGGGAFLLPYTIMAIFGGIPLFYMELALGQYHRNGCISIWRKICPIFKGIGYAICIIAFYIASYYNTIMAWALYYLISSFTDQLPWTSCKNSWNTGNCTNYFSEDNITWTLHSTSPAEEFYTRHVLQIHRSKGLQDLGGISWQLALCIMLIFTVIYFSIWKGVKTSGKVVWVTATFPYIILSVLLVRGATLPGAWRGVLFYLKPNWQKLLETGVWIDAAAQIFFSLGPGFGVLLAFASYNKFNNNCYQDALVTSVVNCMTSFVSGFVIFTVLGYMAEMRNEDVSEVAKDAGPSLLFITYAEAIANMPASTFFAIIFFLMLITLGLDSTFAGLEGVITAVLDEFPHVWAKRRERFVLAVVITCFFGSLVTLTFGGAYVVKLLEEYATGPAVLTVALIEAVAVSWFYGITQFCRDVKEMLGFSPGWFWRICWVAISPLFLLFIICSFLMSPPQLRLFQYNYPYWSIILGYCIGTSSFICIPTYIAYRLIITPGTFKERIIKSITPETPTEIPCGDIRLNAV

Ki [1] [nM]	Ki [2] [nM]	Ki [3] [nM]	pKa [4, 5]	IC50 (CYP3A4) [nM]	IC50 (CYP2D6) [nM]	pKa [4, 6]	Structure (SMILES)	IC50 (hERG; hERG-expressing CHO cells) [nM]	pKa (Base 1) ([4]; first base, e.g., an aliphatic primary, secondary, or tertiary amine)	Ki [1, 7] [nM]	Ki [2, 7] [nM]	Ki [3, 7] [nM]	IC50 (hERG; [8]) [nM]
1.9	36.1	3.2	9.6				CNC[C@H](c1ccc2ccccc2c1)[C@H](OCc1cc(C)no1)c1ccccc1 [Compound 20]	4700					
2.4	14.3	1	9.6				CNC[C@H](c1ccc2ccccc2c1)[C@H](OCC(=O)N1CCC1)c1ccccc1 [Compound 30]	29000					
15.7	46.7		9				CN(C)C[C@H](c1ccc2ccccc2c1)[C@H](O)c1ccccc1 [Compound 83]	4300					
171	27	661	9.4				CNC[C@@H](c1ccc(Cl)c(Cl)c1)[C@@H](O)c1ccccc1 [Compound 114]	11000					
13.8	95.3	208	9.6	20000	660		CNC[C@@H](c1ccc2ccccc2c1)[C@H](O)c1cc(F)cc(F)c1 [Compound 142]						
126	31.8	935	9.4	2000	44		CNC[C@H](c1ccc(Cl)c(Cl)c1)[C@@H](O)c1ccccc1I [Compound 152]						
88.4	53.4	140	9.2	20000	580		CNC[C@@H](c1ccc(Cl)c(Cl)c1)[C@@H](O)c1cccc(OC)n1 [Compound 157]						
55.4	55.8	69.5	9.4	2500	170		CCc1cccc([C@@H](O)[C@H](CNC)c2ccc(Cl)c(Cl)c2)c1 [Compound 159]						
38.5	103	616	9.4	9200	160		CNC[C@H](c1ccc(Cl)c(Cl)c1)[C@@H](O)c1cccc(Br)c1 [Compound 161]						
108	110	806	9.4	4900	790		CNC[C@@H](c1ccc(Cl)c(Cl)c1)[C@@H](O)c1cccc(Br)c1 [Compound 162]						
80	110	192	9.4	14000	730		CNC[C@H](c1ccc(Cl)c(Cl)c1)[C@@H](O)c1cccc(SC)c1 [Compound 163]						
92.4	132	36.9	9.3	240	630	4.5	CNC[C@H](c1ccc(Cl)c(Cl)c1)[C@H](O)c1cncc(OC)c1 [Compound 166]						
212	146	268	9.6	20000	1300		CNCC(c1ccc2ccccc2c1)[C@@H](O)c1ccc(Cl)nc1 (stereo partly shown) [Compound 169]						
306	40	2010	9.3	4800	380		CNC[C@H](c1ccc(Cl)c(Cl)c1)[C@@H](O)c1ccccc1S(C)(=O)=O [Compound 170]						
454	92	1850	9.2	20000	2000	3.2	CNC[C@@H](c1ccc(Cl)c(Cl)c1)[C@@H](O)c1cccnc1OC [Compound 171]						
							CNC[C@H](c1ccc2ccccc2c1)[C@H](O)c1ccccc1 [compound 173]			0.5	4.6	1.2	8800
							CNC[C@@H](c1ccc2ccccc2c1)[C@H](O)c1ccccc1 [compound 180]			2.9	47.5	14.8	32000

Structure (SMILES)	Ki [1] [nM]	Ki [2] [nM]	Ki [3] [nM]	pKa [4, 5]	IC50 (CYP3A4) [nM]	IC50 (CYP2D6) [nM]	pKa [4, 6]	IC50 (hERG; hERG-expressing CHO cells) [nM]	pKa (Base 1) ([4]; first base, e.g., an aliphatic primary, secondary, or tertiary amine)	Ki [1, 7] [nM]	Ki [2, 7] [nM]	Ki [3, 7] [nM]	IC50 (hERG; [8]) [nM]
CNCC(Cc1ccccc1OC)c1ccc2ccccc2c1 (stereo not shown) [Compound 132]	10.3	41.8	12.4					4700	10.1				
